pIC50: −log10 of the molar value.

This is an account of results in US7442713B2, “2-thio-substituted imidazole derivatives and their use in pharmaceutics” (Merckle GmbH, priority 2002, dated 2008).

Sequence of activated p38α (Q16539 whole entry): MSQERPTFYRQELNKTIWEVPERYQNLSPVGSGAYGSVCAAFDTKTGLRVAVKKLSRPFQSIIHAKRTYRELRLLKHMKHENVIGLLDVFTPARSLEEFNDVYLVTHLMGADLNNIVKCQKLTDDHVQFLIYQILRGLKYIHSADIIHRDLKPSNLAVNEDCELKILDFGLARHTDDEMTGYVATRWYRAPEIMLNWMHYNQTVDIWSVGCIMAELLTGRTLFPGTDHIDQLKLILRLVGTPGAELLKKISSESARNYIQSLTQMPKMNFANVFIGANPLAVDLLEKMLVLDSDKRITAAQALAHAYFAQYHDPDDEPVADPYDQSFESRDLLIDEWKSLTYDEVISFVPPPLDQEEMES

The first test addresses activated p38α (Homo sapiens, UniProt Q16539). In words: Kinase assay (p38α, ATF2 substrate, ELISA read-out). The class given is biochemical. Conditions: Table 1; 100 μM ATP, 10 ng activated p38α; read-out: Kinase assay IC50. The protocol: At 37° C., microtiter plates were coated with 50 μl of ATF2 solution ([…]) for one hour. The plates were washed three times with water, and 50 μl of kinase mixture (50 mM tris-HCl, 10 mM MgCl2, 10 mM β-glycerol phosphate, 10 μg/ml BSA, 1 mM DTT, 100 μM ATP, 100 μM Na3VO4, 10 ng of activated p38α) with or without inhibitor were then added into the wells, and the plates were incubated at 37° C. for 1 hour. The plates were washed three times and then incubated at 37° C. with phosphorus-ATF-2 antibodies for one hour. Once more, the plates were washed three times, and goat-anti-rabbit IgG labeled with alkaline phosphatase was then added at 37° C. for one hour (to immobilize antibody-phosphorylated protein-substrate complex). After washing three times, the alkaline phosphatase-substrate solution (3 mM 4-NPP, 50 mM NaHCO3, 50 mM MgCl2, 100 μl/well) was added at 37° C. for 1.5 hours. The formation of 4-nitrophenolate was measured at 405 nm using a microtiter plate reader. The IC50 values were calculated.
In the case of `Cn1c(SCC(=O)NC(CO)(CO)CO)nc(-c2ccc(F)cc2)c1-c1ccncc1` [Example 40, 2-[4-(4-Fluorophenyl)-1-methyl-5-pyridin-4-yl-1H-imidazol-2-ylsulfanyl]-N-(2-hydroxy-1,1-bishydroxymethylethyl)acetamide], the pIC50 is 6.10.

As for `Cn1c(SCC(=O)O)nc(-c2ccc(F)cc2)c1-c1ccncc1` [Example 36, 2-[4-(4-Fluorophenyl)-1-methyl-5-pyridin-4-yl-1H-imidazol-2-ylsulfanyl]acetic acid], the pIC50 was 5.80.

Turning to `Cn1c(SCCN)nc(-c2ccc(F)cc2)c1-c1ccncc1` [Example 59, 2-[4-(4-Fluorophenyl)-1-methyl-5-pyridin-4-yl-1H-imidazol-2-ylsulfanyl]ethylamine], the pIC50 was 5.74.

Consider `Cn1c(SCCCC(=O)O)nc(-c2ccc(F)cc2)c1-c1ccncc1` [Example 39, 4-[4-(4-Fluorophenyl)-1-methyl-5-pyridin-4-yl-1H-imidazol-2-ylsulfanyl]butanoic acid], for which the pIC50 was 5.30.

As for `CCOC(=O)C(=O)CSc1nc(-c2ccc(F)cc2)c(-c2ccncc2)n1C` [Example 45, Ethyl 3-[4-(4-fluorophenyl)-1-methyl-5-pyridin-4-yl-1H-imidazol-2-ylsulfanyl]-2-oxopropionate], the pIC50 is 5.15.

In the case of `Cn1c(SCCC(=O)O)nc(-c2ccc(F)cc2)c1-c1ccncc1` [Example 37, 3-[4-(4-Fluorophenyl)-1-methyl-5-pyridin-4-yl-1H-imidazol-2-ylsulfanyl]propionic acid], the pIC50 was 5.70.

On to `COC(=O)/C=C/CSc1nc(-c2ccc(F)cc2)c(-c2ccncc2)n1C` [Example 31, Methyl 4-[4-(4-fluorophenyl)-1-methyl-5-pyridin-4-yl-1H-imidazol-2-ylsulfanyl]but-2-enoate], for which the pIC50 was 4.38.

In the case of `Cn1c(SCCC(=O)N(CCO)CCO)nc(-c2ccc(F)cc2)c1-c1ccncc1` [Example 44, 3-[4-(4-Fluorophenyl)-1-methyl-5-pyridin-4-yl-1H-imidazol-2-ylsulfanyl]-N,N-bis(2-hydroxyethyl)propionamide], the pIC50 was 4.52.

On to `Cn1c(SCC(=O)N2CCOCC2)nc(-c2ccc(F)cc2)c1-c1ccncc1` [Example 32, 2-[4-(4-Fluorophenyl)-1-methyl-5-pyridin-4-yl-1H-imidazol-2-ylsulfanyl]-1-morpholin-4-ylethanone], for which the pIC50 was 4.05.

As for `Cn1c(SCCCCl)nc(-c2ccc(F)cc2)c1-c1ccncc1` [Example 47, 4-[2-(3-Chloropropylsulfanyl)-5-(4-fluorophenyl)-3-methyl-3H-imidazol-4-yl]pyridine], the pIC50 was 5.47.

Regarding `Cn1c(SCC(=O)N2CCCCC2)nc(-c2ccc(F)cc2)c1-c1ccncc1` [Example 33, 2-[4-(4-Fluorophenyl)-1-methyl-5-pyridin-4-yl-1H-imidazol-2-ylsulfanyl]-1-piperidin-1-ylethanone], the pIC50 is 4.12.

`CC(=O)C(Sc1nc(-c2ccc(F)cc2)c(-c2ccncc2)n1C)C(C)=O` [Example 28, 3-[4-(4-Fluorophenyl)-1-methyl-5-pyridin-4-yl-1H-imidazol-2-ylsulfanyl]pentane-2,4-dione]: the pIC50 is 5.02.

As for `CCOC(=O)CC(=O)CSc1nc(-c2ccc(F)cc2)c(-c2ccncc2)n1C` [Example 30, Ethyl 4-[4-(4-fluorophenyl)-1-methyl-5-pyridin-4-yl-1H-imidazol-2-ylsulfanyl]-3-oxobutanoate], the pIC50 was 5.32.

For `Cn1c(SCCCN2C(=O)c3ccccc3C2=O)nc(-c2ccc(F)cc2)c1-c1ccncc1` [Example 49, 2-{3-[4-(4-Fluorophenyl)-1-methyl-5-pyridin-4-yl-1H-imidazol-2-ylsulfanyl]propyl}isoindole-1,3-dione], the pIC50 was 5.62.

As to `Cn1c(SCCC(=O)NC(CO)(CO)CO)nc(-c2ccc(F)cc2)c1-c1ccncc1` [Example 43, 3-[4-(4-Fluorophenyl)-1-methyl-5-pyridin-4-yl-1H-imidazol-2-ylsulfanyl]-N-(2-hydroxy-1,1-bishydroxymethylethyl)propionamide], the pIC50 was 4.92.

As for `Cn1c(SCCCN)nc(-c2ccc(F)cc2)c1-c1ccncc1` [Example 60], the pIC50 is 5.85.

Turning to `Cn1c(SCC(=O)N(CCO)CCO)nc(-c2ccc(F)cc2)c1-c1ccncc1` [Example 41, 2-[4-(4-Fluorophenyl)-1-methyl-5-pyridin-4-yl-1H-imidazol-2-ylsulfanyl]-N,N-bis(2-hydroxyethyl)acetamide], the pIC50 is 6.39.

The test is the same for the next values; noted with them: Table 1; at 10^−4 mol/l.
For the compound `Cn1c(SCC(=O)NCC(O)CO)nc(-c2ccc(F)cc2)c1-c1ccncc1` (stereo not shown) [Example 42, N-(2,3-Dihydroxypropyl)-2-[4-(4-fluorophenyl)-1-methyl-5-pyridin-4-yl-1H-imidazol-2-ylsulfanyl]acetamide], the “Kinase assay % at 10^−4 mol/l” value is 90.4% at10^−4 mol/l.

Still in this test, the particulars now being: Table 1; at 10^−5 mol/l.
Take `CCOC(=O)C(Sc1nc(-c2ccc(F)cc2)c(-c2ccncc2)n1C)C(C)=O` (stereo not shown) [Example 29, Ethyl 2-[4-(4-fluorophenyl)-1-methyl-5-pyridin-4-yl-1H-imidazol-2-ylsulfanyl]-3-oxobutanoate]: the “Kinase assay % at 10^−5 mol/l” value is 13.8% at10^−5 mol/l.

Still in this test, the particulars now being: Table 1; at 10^−6 mol/l.
`Cn1c(SCCN2C(=O)c3ccccc3C2=O)nc(-c2ccc(F)cc2)c1-c1ccncc1` [Example 48, 2-{2-[4-(4-Fluorophenyl)-1-methyl-5-pyridin-4-yl-1H-imidazol-2-ylsulfanyl]ethyl}isoindole-1,3-dione]: the “Kinase assay % at 10^−6 mol/l” value is 30.9% at 10^−6 mol/l.

On to `CC(=O)CC(=O)CSc1nc(-c2ccc(F)cc2)c(-c2ccncc2)n1C` [Example 38, 1-[4-(4-Fluorophenyl)-1-methyl-5-pyridin-4-yl-1H-imidazol-2-ylsulfanyl]pentane-2,4-dione], for which the “Kinase assay % at 10^−6 mol/l” value came out at 12.22% at10^−6 mol/l.

Staying with this test, now noted: Table 2; at 1 μM.
On to `CC(=O)Nc1cc(-c2c(-c3ccc(F)cc3)nc(SCC(=O)N(CCO)CCO)n2C)ccn1` [Example 69, 2-[5-(2-Acetylaminopyridin-4-yl)-4-(4-fluorophenyl)-1-methyl-1H-imidazol-2-ylsulfanyl]-N,N-bis(2-hydroxyethyl)acetamide], for which the inhibition at 1 µM was 90%.

Turning to `Cn1c(SCC(=O)N(CCO)CCO)nc(-c2ccc(F)cc2)c1-c1ccnc(N)c1` [Example 71, 2-[5-(2-Aminopyridin-4-yl)-4-(4-fluorophenyl)-1-methyl-1H-imidazol-2-ylsulfanyl]-N,N-bis(2-hydroxyethyl)acetamide], the inhibition at 1 µM worked out at 76%.

Turning to `CCOC(=O)CCSc1nc(-c2ccc(F)cc2)c(-c2ccnc(NC(C)=O)c2)n1C` [Example 70, Ethyl 3-[5-(2-acetylaminopyridin-4-yl)-4-(4-fluorophenyl)-1-methyl-1H-imidazol-2-ylsulfanyl]propionate], the inhibition at 1 µM was found to be 83%.

Take `CC(=O)Nc1cc(-c2c(-c3ccc(F)cc3)nc(SCC(O)CO)n2C)ccn1` (stereo not shown) [Example 67, N-{4-[2-(2,3-dihydroxypropanesulfanyl)-5-(4-fluorophenyl)-3-methyl-3H-imidazol-4-yl]pyridin-2-yl}acetamide]: the inhibition at 1 µM is 77%.

As to `Cn1c(SCCC(=O)O)nc(-c2ccc(F)cc2)c1-c1ccnc(N)c1` [Example 72, 3-[5-(2-Aminopyridin-4-yl)-4-(4-fluorophenyl)-1-methyl-1H-imidazol-2-ylsulfanyl]propionic acid], the inhibition at 1 µM amounted to 64%.

Staying with this test, now noted: Table 2; read-out: p38α IC50.
Turning to `CC(=O)Nc1cc(-c2c(-c3ccc(F)cc3)nc(SCC(=O)N(CCO)CCO)n2C)ccn1` [Example 69, 2-[5-(2-Acetylaminopyridin-4-yl)-4-(4-fluorophenyl)-1-methyl-1H-imidazol-2-ylsulfanyl]-N,N-bis(2-hydroxyethyl)acetamide], the pIC50 is 6.60.

Turning to `Cn1c(SCC(=O)N(CCO)CCO)nc(-c2ccc(F)cc2)c1-c1ccnc(N)c1` [Example 71, 2-[5-(2-Aminopyridin-4-yl)-4-(4-fluorophenyl)-1-methyl-1H-imidazol-2-ylsulfanyl]-N,N-bis(2-hydroxyethyl)acetamide], the pIC50 is 6.05.

On to `CCOC(=O)CCSc1nc(-c2ccc(F)cc2)c(-c2ccnc(NC(C)=O)c2)n1C` [Example 70, Ethyl 3-[5-(2-acetylaminopyridin-4-yl)-4-(4-fluorophenyl)-1-methyl-1H-imidazol-2-ylsulfanyl]propionate], for which the negative-log IC50 (pIC50) is 6.28.

As to `Cn1c(SCC(O)CO)nc(-c2ccc(F)cc2)c1-c1ccncc1` (stereo not shown) [Example 57, 3-[4-(4-Fluorophenyl)-1-methyl-5-pyridin-4-yl-1H-imidazol-2-yl-sulfanyl]propan-1,2-diol], the pIC50 was 5.44.

In the case of `CC(=O)Nc1cc(-c2c(-c3ccc(F)cc3)nc(SCC(O)CO)n2C)ccn1` (stereo not shown) [Example 67, N-{4-[2-(2,3-dihydroxypropanesulfanyl)-5-(4-fluorophenyl)-3-methyl-3H-imidazol-4-yl]pyridin-2-yl}acetamide], the pIC50 was 6.37.

By pIC50 is commonly meant the negative decadic logarithm of the IC50, by convention in mol/L. Usually inhibition stands for how much of the control response was suppressed.
